For one assay, the target named is T1, Squalene Synthetase (Rattus norvegicus, UniProt Q02769).
T1 construct: The livers from these rats were homogenized in 5 volumes (ml/g) of ice cold 50 mM HEPES; from tissue; host or cells: rat liver microsomes (male Charles River CD rats fed 0.1% lovastatin for 4 days)
T1 sequence (Q02769 1-416): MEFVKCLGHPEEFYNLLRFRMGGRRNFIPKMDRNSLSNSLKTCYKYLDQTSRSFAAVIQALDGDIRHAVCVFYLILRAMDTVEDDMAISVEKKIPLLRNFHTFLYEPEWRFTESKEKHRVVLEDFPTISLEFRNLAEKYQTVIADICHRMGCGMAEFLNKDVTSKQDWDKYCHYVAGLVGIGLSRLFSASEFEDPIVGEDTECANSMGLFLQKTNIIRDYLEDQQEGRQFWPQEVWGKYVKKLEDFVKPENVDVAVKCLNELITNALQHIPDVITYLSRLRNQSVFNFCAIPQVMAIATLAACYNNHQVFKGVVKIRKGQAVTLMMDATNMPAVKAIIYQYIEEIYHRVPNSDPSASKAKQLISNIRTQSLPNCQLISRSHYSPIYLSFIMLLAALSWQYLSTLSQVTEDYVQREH
Kind of assay: Squalene synthetase assay (rat liver microsomes, [4-14C]farnesyl-pyrophosphate). Format: biochemical. The note with it: 30° C., 20 minutes, read-out: Squalene Synthetase ID50.

The next assay relates to A. fumigatus MF4839. Kind of assay: Antifungal microtiter inhibitor dilution assay (filamentous fungi), A. fumigatus. The assay is classed as cell-based. The note with it: Aspergillus fumigatus, 42 hours, 28° C., read-out: Minimum Inhibitory Concentration. On the procedure: (§1) The compounds are particularly active towards filamentous fungi and yeasts including Candida albicans and Crypt neoformans. The sensitivity of filamentous fungi and yeast was determined using inhibitor dilution assays in microtiter format. The compounds were dissolved in DMSO at 2 mg/ml and serially diluted in 0.1M phosphate buffer, pH 7.0 in the microtiter dish from 100 to 0.006 μg/ml. A standardized spore suspension for testing the filamentous fungi was prepared by inoculating Antibiotic Medium #3 containing 1.5% agar with spores such that 1.5×10^3 colony forming units were added per well. The microtiter wells were filled with 50 μl of buffer containing compound and 50 μl of inoculated medium. The sensitivity of yeasts was determined by inoculating yeast nitrogen base containing 1% dextrose (YNB/G) with aliquots of an overnight yeast culture grown in yeast morphology (YM) media at 35° C. and diluting in YNB/G to yield a final concentration of 1.5-7.5×10^3 colony forming units/well. One hundred fifty μl of inoculated media was added per well. To test the sensitivity of yeast, compound was solubilized in 10 percent aqueous DMSO at 2.56 mg/ml. The compound was diluted serially in YNB/G from 128 to 0.06 μg/ml. The wells were filled with 150 μl of drug containing media. […]

Another assay has as its system A. flavus MF383. Nature of the assay: Antifungal microtiter inhibitor dilution assay (filamentous fungi), A. flavus. The assay is classed as cell-based. The note with it: Aspergillus flavus, 42 hours, 28° C., read-out: Minimum Inhibitory Concentration. On the procedure: as §1
In the next assay the test system is A. niger MF442. Nature of the assay: Antifungal microtiter inhibitor dilution assay (filamentous fungi), A. niger. Format: cell-based. The note with it: Aspergillus niger, 42 hours, 28° C., read-out: Minimum Inhibitory Concentration. On the procedure: as §1
The test system of the next assay is Fus. oxysporum MF4014. Nature of the assay: Antifungal microtiter inhibitor dilution assay (filamentous fungi), Fus. oxysporum. The assay is classed as cell-based. The note with it: Fusarium oxysporum, 42 hours, 28° C., read-out: Minimum Inhibitory Concentration. On the procedure:
as §1

In a further assay the test system is Pen. italicum MF2819. Kind of assay: Antifungal microtiter inhibitor dilution assay (filamentous fungi), Pen. italicum. Format: cell-based. The note with it: Penicillium italicum, 42 hours, 28° C., read-out: Minimum Inhibitory Concentration. On the procedure: as §1
In another assay the test system is Coch. miyabeanus MF4626. Nature of the assay: Antifungal microtiter inhibitor dilution assay (filamentous fungi), Coch. miyabeanus. Format: cell-based. The note with it: Bipolaris oryzae, MF4626, 42 h, read-out: Minimum Inhibitory Concentration. On the procedure:
as §1

A further assay concerns C. albicans MY1055. Nature of the assay: Antifungal microtiter inhibitor dilution assay (yeast), C. albicans. Format: cell-based. The conditions noted are these: Candida albicans, 24 hours, 28° C., read-out: Minimum Inhibitory Concentration. On the procedure: as §1
In another assay the test system is C. tropicalis MY1012. Kind of assay: Antifungal microtiter inhibitor dilution assay (yeast), C. tropicalis. Format: cell-based. The conditions noted are these: Candida tropicalis, 24 hours, 28° C., read-out: Minimum Inhibitory Concentration. On the procedure:
as §1

For another assay, the system named is C. parapsilosis MY1010. Nature of the assay: Antifungal microtiter inhibitor dilution assay (yeast), C. parapsilosis. Format: cell-based. The note with it: Lodderomyces parapsilosis, 24 hours, 28° C., read-out: Minimum Inhibitory Concentration. On the procedure:
as §1

The test system of a further assay is Crypt. neoformans MY1051. Nature of the assay: Antifungal microtiter inhibitor dilution assay (yeast), Crypt. neoformans. The assay is classed as cell-based. The conditions noted are these: Cryptococcus neoformans, 24 hours, 28° C., read-out: Minimum Inhibitory Concentration. On the procedure:
as §1

1 compound from patent US5096923A, “Novel squalene synthetase inhibitors” (Merck & Co., Inc., priority 1990, dated 1992) can be followed below.

In brackets after ≈: the same amount, converted by molar mass.

Procedure for Squalene Synthetase: The intrinsic squalene synthetase inhibitory activity of representative compounds of this invention was measured by the standard in vitro protocol described below:
Male, Charles River CD rats (120 to 150 g) were fed a diet containing 0.1% lovastatin for 4 days. The livers from these rats were homogenized in 5 volumes (ml/g) of ice cold 50 mM HEPES (4-(2 -hydroxyethyl)-1-piperazine-ethanesulfonic acid), 5 mM EDTA(ethylenediaminetetraacetic acid) pH 7.5 with a Potter-Elvehjem type tissue grinder. The homogenate was centrifuged twice at 20,000×g for 15 minutes at 4° C., discarding the pellet each time. The supernatant was then centrifuged at 100,000×g for 1 hour at 4° C. The resulting microsomal pellet was resuspended in a volume of the above homogenizing buffer equal to one-fifth the volume of the original homogenate. This microsomal preparation has a protein concentration of about 7 mg/ml. The microsomal suspensions were stored in aliquots at -70° C. Squalene synthetase activity in these aliquots is stable for at least several months.
Prenyl transferase was purified to use in the enzymatic synthesis of radiolabelled farnesyl pyrophosphate. Prenyl transferase was assayed by the method of Rilling (Methods in Enzymology 110, 125-129 (1985)) and a unit of activity is defined as the amount of enzyme that will produce 1 μmole of farnesyl pyrophosphate per minute at 30° C. in the standard assay. […]

On to `C=C(CCC12OC(C(=O)OC)C(O)(C(=O)OC)C(C(=O)OC)(O1)C(OC(=O)C=CC(C)CC(C)CC)C2O)C(OC(C)=O)C(C)Cc1ccccc1` (centres unmarked) [Compound B], for which, at Squalene Synthetase, the IC50 is 5 µM. Further, the MIC was 6.2 µg/mL (≈ 8.46 µM) in the assay with A. fumigatus MF4839; 6.2 µg/mL (≈ 8.46 µM) in the assay on A. flavus MF383; 25 µg/mL (≈ 34.1 µM) in the assay on A. niger MF442; > 100 µg/mL in the assay on Fus. oxysporum MF4014; 6.2 µg/mL (≈ 8.46 µM) in the assay with Pen. italicum MF2819; 1.6 µg/mL (≈ 2.18 µM) with Coch. miyabeanus MF4626. Besides, the MIC in the assay on C. albicans MY1055 came to 8 µg/mL (≈ 10.9 µM); in the assay with C. tropicalis MY1012, 4 µg/mL (≈ 5.46 µM); with C. parapsilosis MY1010 it was 8 µg/mL (≈ 10.9 µM); in the assay on Crypt. neoformans MY1051, 1 µg/mL (≈ 1.36 µM).
